Consider 23 compounds from patent US10577378B2, “EIF4A-inhibiting compounds and methods related thereto” (eFFECTOR Therapeutics, Inc., priority 2015, dated 2020).

The assay has as its system MDA-MB-231 human breast cancer cells. Description: Cell proliferation assay (CellTiter-Glo, 72 hours treatment). The format is cell-based. The conditions noted are these: Homo sapiens; MDA-MB-231 cells, 72 hours at 37° C., CellTiter-Glo; read-out: MDA-MB-231 cell proliferation assay (IC50). Summed up: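 MDA-MB-231 cells seeded at 2,500 cells/well, treated next day with compound or DMSO vehicle for 72 h at 37 °C. Proliferation read by CellTiter-Glo; IC50 from sigmoidal non-linear regression, binned as +++ (<100 nM), ++ (100–1000 nM), + (>1000 nM).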
On the technique in general: Cellular ATP, detected with luciferase, serves as a proxy for viable cell number.

pIC50: −log10 of the molar value.

Turning to `CC(C)n1cc2c(n1)[C@]1(O)[C@H](O)[C@H](C(=O)N(C)C)[C@@H](c3ccccc3)[C@]1(c1ccc(C#N)cc1)O2` (racemic) [80F, rac-(4aR,5S,6R,7R,7aS)-4a-(4-cyanophenyl)-7,7a-dihydroxy-2-isopropyl-N,N-dimethyl-5-phenyl-2,4a,5,6,7,7a-hexahydrocyclopenta[4,5]furo[3,2-c]pyrazole-6-carboxamide], the pIC50 was below 6.00.
Then `CN(C)C(=O)[C@H]1[C@@H](O)[C@@]2(O)c3nn(C)c(C#N)c3O[C@@]2(c2ccc(C#N)cc2)[C@@H]1c1ccccc1` (racemic) [82F, Rac-(4aR,5S,6R,7R,7aS)-3-cyano-4a-(4-cyanophenyl)-7,7a-dihydroxy-N,N,2-trimethyl-5-phenyl-2,4a,5,6,7,7a-hexahydrocyclopenta[4,5]furo[3,2-c]pyrazole-6-carboxamide], with below 6.00.
Then `CS(=O)(=O)[C@H]1[C@@H](O)[C@@]2(O)c3ncc(Cl)cc3O[C@@]2(c2ccc(Br)cc2)[C@@H]1c1ccccc1` (racemic) [84F, Rac-(5aR,6S,7R,8S,8aS)-5a-(4-bromophenyl)-3-chloro-7-(methylsulfonyl)-6-phenyl-5a,6,7,8-tetrahydro-8aH-cyclopenta[4,5]furo[3,2-b]pyridine-8,8a-diol], with below 6.00; and `CS(=O)(=O)[C@H]1[C@@H](O)[C@@]2(O)c3ncc(Cl)cc3O[C@@]2(c2ccc(C#N)cc2)[C@@H]1c1ccccc1` (racemic) [85F, Rac-4-((5aR,6S,7R,8S,8aS)-3-chloro-8,8a-dihydroxy-7-(methylsulfonyl)-6-phenyl-6,7,8,8a-tetrahydro-5aH-cyclopenta[4,5]furo[3,2-b]pyridin-5a-yl)benzonitrile], with below 6.00; and `COc1cncc2c1[C@]1(O)[C@H](O)[C@H](C(=O)N3CCOCC3)[C@@H](c3ccccc3)[C@]1(c1ccc(Br)cc1)O2` (racemic) [87F, Rac-((4bS,5R,6R,7S,7aR)-7a-(4-bromophenyl)-4b,5-dihydroxy-4-methoxy-7-phenyl-4b,6,7,7a-tetrahydro-5H-cyclopenta[4,5]furo[2,3-c]pyridin-6-yl)(morpholino)methanone], with above 7.00.
With `COc1cncc2c1[C@]1(O)[C@H](O)[C@H](C(=O)N(C)CC(F)(F)F)[C@@H](c3ccccc3)[C@]1(c1ccc(Br)cc1)O2` (racemic) [88F, Rac-(4bS,5R,6R,7S,7aR)-7a-(4-bromophenyl)-4b,5-dihydroxy-4-methoxy-N-methyl-7-phenyl-N-(2,2,2-trifluoroethyl)-4b,6,7,7a-tetrahydro-5H-cyclopenta[4,5]furo[2,3-c]pyridine-6-carboxamide], the pIC50 was above 7.00.
As to `COc1cncc2c1[C@]1(O)[C@H](O)[C@H](C(=O)NC3CC3)[C@@H](c3ccccc3)[C@]1(c1ccc(Br)cc1)O2` (racemic) [89F, Rac-(4bS,5R,6R,7S,7aR)-7a-(4-bromophenyl)-N-cyclopropyl-4b,5-dihydroxy-4-methoxy-7-phenyl-4b,6,7,7a-tetrahydro-5H-cyclopenta[4,5]furo[2,3-c]pyridine-6-carboxamide], the pIC50 is above 7.00.
With `COc1cncc2c1[C@]1(O)[C@H](O)[C@H](C(=O)NCC(F)(F)F)[C@@H](c3ccccc3)[C@]1(c1ccc(Br)cc1)O2` (racemic) [90F, Rac-(4bS,5R,6R,7S,7aR)-7a-(4-bromophenyl)-4b,5-dihydroxy-4-methoxy-7-phenyl-N-(2,2,2-trifluoroethyl)-4b,6,7,7a-tetrahydro-5H-cyclopenta[4,5]furo[2,3-c]pyridine-6-carboxamide], the pIC50 was above 7.00.
The same measure for `O[C@@H]1C(F)(F)[C@@H](c2ccccc2)[C@]2(c3ccc(Br)cc3)Oc3cc(Cl)cnc3[C@]12O` (racemic) [91F, Rac-(5aR,6S,8S,8aS)-5a-(4-bromophenyl)-3-chloro-7,7-difluoro-6-phenyl-5a,6,7,8-tetrahydro-8aH-cyclopenta[4,5]furo[3,2-b]pyridine-8,8a-diol]: below 6.00; for `O[C@@H]1C2(CC2)[C@@H](c2ccccc2)[C@]2(c3ccc(Br)cc3)Oc3cc(Cl)cnc3[C@]12O` (racemic) [92F, Rac-(5aR,6R,8R,8aS)-5a-(4-bromophenyl)-3-chloro-6-phenyl-5a,6-dihydrospiro[cyclopenta[4,5]furo[3,2-b]pyridine-7,1′-cyclopropane]-8,8a(8H)-diol]: below 6.00.
Then `O=S(=O)(Cc1ccccc1)[C@H]1[C@@H](O)[C@@]2(O)c3ncc(Cl)cc3O[C@@]2(c2ccc(Br)cc2)[C@@H]1c1ccccc1` (racemic) [93F, Rac-(5aR,6S,7R,8S,8aS)-7-(benzylsulfonyl)-5a-(4-bromophenyl)-3-chloro-6-phenyl-5a,6,7,8-tetrahydro-8aH-cyclopenta[4,5]furo[3,2-b]pyridine-8,8a-diol], with below 6.00; and `N#Cc1ccc([C@@]23Oc4cc(Cl)cnc4[C@]2(O)[C@H](O)[C@H](S(=O)(=O)Cc2ccccc2)[C@H]3c2ccccc2)cc1` (racemic) [94F, Rac-4-((5aR,6S,7R,8S,8aS)-7-(benzylsulfonyl)-3-chloro-8,8a-dihydroxy-6-phenyl-6,7,8,8a-tetrahydro-5aH-cyclopenta[4,5]furo[3,2-b]pyridin-5a-yl)benzonitrile], with below 6.00; and `CN(C)C(=O)[C@H]1[C@@H](O)[C@@]2(O)c3c(C#N)cncc3O[C@@]2(c2ccc(C#N)cc2)[C@@H]1c1ccccc1` (racemic) [96F, Rac-(4bS,5R,6R,7S,7aR)-4-cyano-7a-(4-cyanophenyl)-4b,5-dihydroxy-N,N-dimethyl-7-phenyl-4b,6,7,7a-tetrahydro-5H-cyclopenta[4,5]furo[2,3-c]pyridine-6-carboxamide], with below 6.00.
The same measure for `CN(C)C(=O)[C@H]1[C@@H](O)[C@@]2(O)c3c(Cl)cncc3O[C@@]2(c2ccc(Br)cc2)[C@@H]1c1ccccc1` (racemic) [97F, Rac-(4bS,5R,6R,7S,7aR)-7a-(4-bromophenyl)-4-chloro-4b,5-dihydroxy-N,N-dimethyl-7-phenyl-4b,6,7,7a-tetrahydro-5H-cyclopenta[4,5]furo[2,3-c]pyridine-6-carboxamide]: 6.00 to 7.00.
In the case of `COc1ccc(Cn2cc3c(n2)[C@]2(O)[C@H](O)[C@H](C(=O)N(C)C)[C@@H](c4ccccc4)[C@]2(c2ccc(C#N)cc2)O3)cc1` (racemic) [99F, Rac-(4aR,5S,6R,7R,7aS)-4a-(4-cyanophenyl)-7,7a-dihydroxy-2-(4-methoxybenzyl)-N,N-dimethyl-5-phenyl-2,4a,5,6,7,7a-hexahydrocyclopenta[4,5]furo[3,2-c]pyrazole-6-carboxamide], the pIC50 was below 6.00.
The same measure for `CN(C)C(=O)[C@H]1[C@@H](O)[C@@]2(O)c3n[nH]cc3O[C@@]2(c2ccc(C#N)cc2)[C@@H]1c1ccccc1` (racemic) [100F, rac-(4aR,5S,6R,7R,7aS)-4a-(4-cyanophenyl)-7,7a-dihydroxy-N,N-dimethyl-5-phenyl-2,4a,5,6,7,7a-hexahydrocyclopenta[4,5]furo[3,2-c]pyrazole-6-carboxamide]: below 6.00; for `COc1cncc2c1[C@]1(O)[C@H](O)[C@H](S(C)(=O)=O)[C@@H](c3ccccc3)[C@]1(c1ccc(Br)cc1)O2` (racemic) [101F, rac-(4bS,5S,6R,7S,7aR)-7a-(4-bromophenyl)-4-methoxy-6-(methylsulfonyl)-7-phenyl-5,6,7,7a-tetrahydro-4bH-cyclopenta[4,5]furo[2,3-c]pyridine-4b,5-diol]: 6.00 to 7.00; for `COc1cncc2c1[C@]1(O)[C@H](O)[C@H](C(=O)N(C)CC(F)F)[C@@H](c3ccccc3)[C@]1(c1ccc(Br)cc1)O2` (racemic) [111F, Rac-(4bS,5R,6R,7S,7aR)-7a-(4-bromophenyl)-N-(2,2-difluoroethyl)-4b,5-dihydroxy-4-methoxy-N-methyl-7-phenyl-4b,6,7,7a-tetrahydro-5H-cyclopenta[4,5]furo[2,3-c]pyridine-6-carboxamide]: above 7.00.
Take `COc1cncc2c1[C@]1(O)[C@H](O)[C@H](C(=O)N3[C@@H]4CCC[C@H]3CC4)[C@@H](c3ccccc3)[C@]1(c1ccc(Br)cc1)O2` (racemic) [114F, Rac-((1R,5S)-8-azabicyclo[3.2.1]octan-8-yl)((4bS,5R,6R,7S,7aR)-7a-(4-bromophenyl)-4b,5-dihydroxy-4-methoxy-7-phenyl-4b,6,7,7a-tetrahydro-5H-cyclopenta[4,5]furo[2,3-c]pyridin-6-yl)methanone]: the pIC50 is above 7.00.
The same measure for `COc1cncc2c1[C@]1(O)[C@H](O)[C@H](C(=O)NCC(F)F)[C@@H](c3ccccc3)[C@]1(c1ccc(Br)cc1)O2` (racemic) [116F, Rac-(4bS,5R,6R,7S,7aR)-7a-(4-bromophenyl)-N-(2,2-difluoroethyl)-4b,5-dihydroxy-4-methoxy-7-phenyl-4b,6,7,7a-tetrahydro-5H-cyclopenta[4,5]furo[2,3-c]pyridine-6-carboxamide]: above 7.00; for `COc1cncc2c1[C@]1(O)[C@H](O)[C@H](S(=O)(=O)CC(F)(F)F)[C@@H](c3ccccc3)[C@]1(c1ccc(Br)cc1)O2` (racemic) [117F, Rac-(4bS,5S,6R,7S,7aR)-7a-(4-bromophenyl)-4-methoxy-7-phenyl-6-((2,2,2-trifluoroethyl)sulfonyl)-5,6,7,7a-tetrahydro-4bH-cyclopenta[4,5]furo[2,3-c]pyridine-4b,5-diol]: below 6.00.
Then `COc1cncc2c1[C@]1(O)[C@H](O)[C@H](S(=O)(=O)c3ccccc3)[C@@H](c3ccccc3)[C@]1(c1ccc(C#N)cc1)O2` (racemic) [118F, Rac-4-((4bS,5S,6R,7S,7aR)-4b,5-dihydroxy-4-methoxy-7-phenyl-6-(phenylsulfonyl)-4b,5,6,7-tetrahydro-7aH-cyclopenta[4,5]furo[2,3-c]pyridin-7a-yl)benzonitrile], with 6.00 to 7.00; and `COc1cncc2c1[C@]1(O)[C@H](O)[C@H](S(=O)(=O)c3ccccn3)[C@@H](c3ccccc3)[C@]1(c1ccc(C#N)cc1)O2` (racemic) [119F, Rac-4-((4bS,5S,6R,7S,7aR)-4b,5-dihydroxy-4-methoxy-7-phenyl-6-(pyridin-2-ylsulfonyl)-4b,5,6,7-tetrahydro-7aH-cyclopenta[4,5]furo[2,3-c]pyridin-7a-yl)benzonitrile], with 6.00 to 7.00.
